In brackets after ≈: the same amount, converted by molar mass. Read-outs that look alike come from different tables or passages of the source.
How the values were obtained:
[1] = test system: human primary colonic fibroblasts (CCD-18Co) activated with TGF-β; test: High throughput microscopy-based drug screening (α-SMA and COL1A1 immunocytochemistry); format: cell-based; conditions: TGF-β-activated CCD-18Co, 4 mM
Text: To identify potential antifibrotic agents, a high-throughput microscope-based drug screening approach using human primary colonic fibroblasts (CCD-18Co) activated with transforming growth factor-β (TGF-β) was used. A panel of 1,586 FDA-approved small molecule drugs were then screened for their ability to reduce expression of α-SMA and type 1 collagen (COL1A1) as assessed by fluorescent immunocytochemistry. Based on its known antifibrotic effects, pirfenidone was included in this screen and found effective at a dose of 4 mM (FIG. 1A).
Human primary colonic fibroblasts (CCD-18Co) were seeded in 96 well flat bottom plate. Twenty-four hours later, cells were washed and starved with alpha-MEM medium without FBS for 24 h. The cells were then washed and the media was replaced with alpha-MEM supplemented with 10% FBS containing 5 ng/ml TGF-β and activated for 48 h. The cells were then washed again and fresh medium containing 5 ng/ml TGF-β and 10 μM of a drug from a library of 1,586 FDA approved small molecules was applied to the cells. After 4 days, the cells were fixed with 10% neutral formalin for 15 min and permeabilized with 0.5% Triton X-100 in PBS. […] Images were analyzed with Image J2 Fiji (NIH, Bethesda, MD) to determine the drug treatment efficacy as assessed by reduction in the intensity of α-SMA and collagen staining per cell. […]

[2] = test system: CCD-18Co cells; test: RT-PCR of α-SMA (ACTA2) expression in activated CCD-18Co cells; format: cell-based, human
Method: (§1) RNA was extracted using TRIzol Reagent as previously described. Li et al., 2017. RNAs were reverse transcribed into cDNA with ReverAid First Strand cDNA synthesis kit. SYBR Green PCR Master Mix kit was utilized for the real time PCR using a QuantStudio 3 PCR machine (Applied Biosystems, Waltham, MA). Primers used are detailed in Table 6. Each reaction was performed in triplicate for each primer with a no-template negative control. QuantStudio Design and Analysis Software 1.5.2 was used to analyze the data using the ΔΔCT method.

[3] = test system: LX2 cells; test: RT-PCR of α-SMA (ACTA2) expression in activated LX2 cells; format: cell-based, human; conditions: activated LX-2
Method: as §1

[4] = test system: small intestine fibrosis mouse model; test: Mouse intestine transplant fibrosis model; format: in vivo; conditions: three times daily oral 100 mg/kg for 7 days
Method: An intestine transplantation model (FIG. 6) that was previously used to validate the antifibrotic efficacy of oral pirfenidone was employed. Meier et al., 2016. Sul-NC at a dose of 50 mg/kg or 150 mg/kg was given as a single injection at the site of the transplant and compared to oral pirfenidone at the dose previously described to be effective in the model, three times daily oral dosing with 100 mg/kg. […] Again, there was a striking difference between the dose and frequency of administration when comparing pirfenidone (three times daily dosing, total dose 2,100 mg/kg) vs Sul-NC (single dose, 50 mg/kg).
5-8 week old male C57BL/6J mice were utilized in an intestine transplantation model with minor modifications (FIG. 6). Meier et al., 2016. Briefly, a 6-cm segment of small intestine proximal to the ileocecal valve was excised from a donor mouse in a sterilized biosafety cabinet. The tissue was washed with cold saline 3 times, and carefully cut into 1 cm segments that were placed in a petri dish with cold saline. The back neck of the recipient mice was shaved. […] Four representative images were taken for each tissue to quantify the collagen thickness. For each image, 10 different areas were measured by a masked observer with image J Fiji (NIH, Bethesda, MD). Data were analyzed with GraphPad Prism 9 (San Diego, CA, USA).

[5] = test system: bleomycin-induced mouse skin fibrosis model; test: Bleomycin-induced skin fibrosis model; format: in vivo; conditions: 4 weeks
Method: There is a paucity of animal models of GI tract fibrosis/strictures. Li et al., 2021. To obtain preliminary evidence regarding efficacy of Sul-NC as antifibrotic in vivo, a well-described and reproducible bleomycin-induced rodent skin fibrosis model was used. Yamamoto et al., 1999. To induce fibrosis, bleomycin was injected in mouse skin at five spots within a 1×1 cm region on the back every other day for four weeks (FIG. 3), as previously described. Yamamoto et al., 1999. […] In addition, the Masson's Trichrome staining confirmed that the thickness of the dermis was due to deposition of collagen and other ECM proteins (blue staining in the figure). Of note, there was a striking difference between the dose and frequency of administration when comparing pirfenidone (daily dosing, total dose 2,800 mg/kg) vs Sul-NC (once weekly, total dose 200 mg/kg).
5-8 week old male C57BL/6J mice were utilized for bleomycin induced skin fibrosis model. The upper back was shaved, and 100 μL bleomycin (0.5 mg/ml in PBS) was injected subcutaneously every other day into one of five sectors in a defined 1-cm^2 area (see FIG. 3). […] Five representative images for each mouse were taken to quantify skin dermal thickness. For each image, five different areas were measured by a masked observer with image J Fiji (NIH, Bethesda, MD). Data were analyzed with GraphPad Prism 9 (San Diego, CA, USA).

[6] = topical dosing; cited from earlier work
[7] = test system: C57BL/6J mice; conditions: both, mouse, in vivo; for Survival: ip
[8] = test system: CCD-18Co cells; test: Western blot of α-SMA and COL1A1 in activated CCD-18Co cells; format: cell-based, human; conditions: 10 μM, 96 h
Method: (§2) LX2 and CCD-18Co were seeded in 6 well plate. Twenty-four hours later, cells were washed and starved with Alpha MEM medium without FBS for 24 h. The cells were then washed and the media was replaced with Alpha MEM supplemented with 10% FBS containing 5 ng/ml TGF-β and activated for 48 h. […] The cells were then washed three times with cold PBS and treated with protein lysis RIPA buffer with complete protease inhibitor cocktail. Protein concentration was determined with Pierce BCA protein Assay Kit. 20 μg of total protein lysate from each treatment group was loaded into each well of a Mini-Protean TGX gel (4-15%), and electrophoresis was performed using 1× Tris/Glycine/SDS Buffer. Proteins were then transferred to nitrocellulose membranes using 1× Tris/Glycine with methanol. Membranes were blocked with Intercept (TBS) blocking buffer for 1 h at room temperature and then incubated with anti-α-SMA antibody (1:1000), and COL1A1 antibody (1:1000) at 4° C. overnight. Membranes were washed with TBS-0.1% Tween three times for 10 min each, and then incubated in IRDye-Secondary antibodies (1:10,000) at room temperature for 1 h. The membranes were then washed with TBS-0.1% Tween three times for 10 min each and rinsed with 1×TBS to remove residual Tween20. Membranes were then scanned with an Odyssey Image System (Li-Cor, Lincoln, NE, USA).

[9] = In vitro drug release under accelerated conditions (rapid equilibrium dialysis); format: physicochemical
Method: Sul-NC (5 mg/mL, 50 μL) were placed in a rapid equilibrium dialysis s(RED) device with an 8 kDa molecular weight cutoff (n=3). The outer reservoir was filled with 1 mL of 0.5% Tween 80 in phosphate buffered saline (PBS-T) solution. The samples were incubated on an orbital shaker with temperature control at 37° C. and 300 rpm. Every 24 h, 1 mL of the solution was collected and replenished with fresh 1 mL PBS-T solution. […] Mobile phase A was water containing 0.1% trifluoroacetic acid (TFA) and mobile phase B was acetonitrile containing 0.1% TFA. The isocratic flow was composed 70% of mobile phase A and 30% mobile phase B at 1 mL/min flow rate for 10 min. […] The drug amount was quantified and used to calculate the accumulation percentage. The release curves were plotted with GraphPad Prism 9 (San Diego, CA).

[10] = in vivo; conditions: both, C57BL/6J, mouse, sc
[11] = mouse, in vivo, sc, 50 mg/kg
Method: Each treatment group contain 3-9 mice. […] MTD was injected and blood were taken for liver and kidney function test (Table 5).

[12] = physchem; format: physicochemical
[13] = test system: human hepatic stellate cells (LX2); test: Western blot of α-SMA and COL1A1 in activated LX2 cells; format: cell-based; conditions: activated LX2, 10 μM, 96 h
Method: as §2

In the case of Cc1ccc(=O)n(-c2ccccc2)c1 [pirfenidone], the “decrease in the staining of α-SMA and COL1A1” value [1] is reported as “effective”, the “concentration below which no effect on ACTA2 expression was shown” value [2] is reported as 4 mM and the “concentration below which no effect on ACTA2 expression was shown” value [3] is reported as 4 mM. For the same compound, the collagen layer thickness [4] was 9.1±0.3 μm and the “thickness of the dermis compared to Vehicle” value ([5]; daily oral 100 mg/kg) was “significantly reduced”.
For Clc1ccc(CSC(Cn2ccnc2)c2ccc(Cl)cc2Cl)cc1 (centres unmarked) [sulconazole], the “elimination via the feces” value [6] is given as “one of the primary clearance routes”, the “dose resulting in reduced survival” value [7] is given as 50 mg/kg and the Survival ([7]; 15 mg/kg) is given as 5/5 (100%). The Survival ([7]; 30 mg/kg) was 5/5 (100%), the Survival ([7]; 40 mg/kg) was 5/5 (100%) and the “protein production of α-SMA and COL1A1 (Western blot)” value [8] was “significantly reduced”. For the same compound, the “passage of free drug through the dialysis membrane” value [9] was “not impeded by the dialysis membrane”, the MTD [10] was 50 mg/kg and the “thickness of the dermis compared to Vehicle” value ([5]; 10-mg/kg IP every other day) was “significantly reduced”. For the same compound, the “blood level of ALT and BUN” value [11] was “increased”, the solubility [12] was 240 µg/mL (≈ 603 µM) and the “protein production of α-SMA and COL1A1 (Western blot)” value [13] was “significantly reduced”.
